Measurements as given in the supplement of paper PMC10307832.

How the values were obtained:
Assay in all cases: relative viability (nuclei count vs DMSO), 5 days (fraction); higher = more cells survive
BI-2536 + Navitoclax = compound: CC[C@@H]1C(=O)N(C)c2cnc(Nc3ccc(C(=O)NC4CCN(C)CC4)cc3OC)nc2N1C1CCCC1 [BI-2536] + CC1(C)CCC(c2ccc(Cl)cc2)=C(CN2CCN(c3ccc(C(=O)NS(=O)(=O)c4ccc(N[C@H](CCN5CCOCC5)CSc5ccccc5)c(S(=O)(=O)C(F)(F)F)c4)cc3)CC2)C1 [Navitoclax] (partner 0.5 µM)
Outline: (§1)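 Values are medians from duplicate plates. Each reflects relative viability, defined as the nuclei count of treated wells over that of vehicle wells. Lung cancer cell lines in 1536-well plates were pin-tool dosed one day after seeding with one drug alone or with a fixed anchor-drug dose plus five library-drug doses (not always all listed) in √10 steps, then fixed, stained and imaged at 4× after 5 days.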

BI-2536 + Palbociclib = compound: CC[C@@H]1C(=O)N(C)c2cnc(Nc3ccc(C(=O)NC4CCN(C)CC4)cc3OC)nc2N1C1CCCC1 [BI-2536] + CC(=O)c1c(C)c2cnc(Nc3ccc(N4CCNCC4)cn3)nc2n(C2CCCC2)c1=O [Palbociclib] (partner 0.5 µM)
Outline: as §1

[1] = compound: CC1CC(=O)N(C2=CN=C(N=C2N1C3CCCC3)NC4=C(C=C(C=C4)C(=O)NC5CCN(CC5)C)OC)C [NPK76-II-72-1] + Cc1cc(Nc2cc(N3CCN(C)CC3)nc(Sc3ccc(NC(=O)C4CC4)cc3)n2)n[nH]1 [Tozasertib] (partner 0.1 µM)
Outline: as §1

BI-2536 + Linsitinib = compound: CC[C@@H]1C(=O)N(C)c2cnc(Nc3ccc(C(=O)NC4CCN(C)CC4)cc3OC)nc2N1C1CCCC1 [BI-2536] + C[C@]1(O)C[C@@H](c2nc(-c3ccc4ccc(-c5ccccc5)nc4c3)c3c(N)nccn32)C1 [Linsitinib] (partner 1 µM)
Outline: as §1

| Cell Line | relative viability (BI-2536 + Navitoclax; first compound 0.01 µM) | relative viability (BI-2536 + Navitoclax; first compound 0.03162 µM) | relative viability (BI-2536 + Navitoclax; first compound 0.1 µM) | relative viability (BI-2536 + Navitoclax; first compound 0.3162 µM) | relative viability (BI-2536 + Navitoclax; first compound 1 µM) | relative viability (BI-2536 + Palbociclib; first compound 0.01 µM) | relative viability (BI-2536 + Palbociclib; first compound 0.03162 µM) | relative viability (BI-2536 + Palbociclib; first compound 0.1 µM) | relative viability (BI-2536 + Palbociclib; first compound 0.3162 µM) | relative viability (BI-2536 + Palbociclib; first compound 1 µM) | relative viability ([1]; first compound 0.01 µM) | relative viability ([1]; first compound 0.03162 µM) | relative viability ([1]; first compound 0.1 µM) | relative viability ([1]; first compound 0.3162 µM) | relative viability ([1]; first compound 1 µM) | relative viability (BI-2536 + Linsitinib; first compound 0.01 µM) | relative viability (BI-2536 + Linsitinib; first compound 0.03162 µM) | relative viability (BI-2536 + Linsitinib; first compound 0.1 µM) | relative viability (BI-2536 + Linsitinib; first compound 0.3162 µM) | relative viability (BI-2536 + Linsitinib; first compound 1 µM) |
| --- | --- | --- | --- | --- | --- | --- | --- | --- | --- | --- | --- | --- | --- | --- | --- | --- | --- | --- | --- | --- |
| HARA | 1.15 | 1.17 | 0.98 | 0.103 | 0.0669 | 0.265 | 0.346 | 0.295 | 0.151 | 0.136 | 0.124 | 0.0912 | 0.116 | 0.106 | 0.108 | 0.984 | 1.2 | 0.969 | 0.0681 | 0.0677 |
| NCI-H838 | 1.11 | 1.2 | 0.634 | 0.164 | 0.146 | 0.214 | 0.202 | 0.199 | 0.0979 | 0.0994 | 0.27 | 0.248 | 0.278 | 0.274 | 0.288 | 1.05 | 0.961 | 0.96 | 0.136 | 0.126 |
| NCI-H1755 | 1 | 0.909 | 0.903 | 0.152 | 0.127 | 0.473 | 0.477 | 0.424 | 0.377 | 0.385 | 0.669 | 0.663 | 0.526 | 0.552 | 0.653 | 1.03 | 0.992 | 0.971 | 0.455 | 0.272 |
| HCC-78 | 0.772 | 0.708 | 0.635 | 0.344 | 0.144 | 0.566 | 0.475 | 0.431 | 0.436 | 0.318 | 0.446 | 0.407 | 0.408 | 0.368 | 0.429 | 0.613 | 0.481 | 0.511 | 0.52 | 0.207 |
| IA-LM | 0.753 | 0.559 | 0.0092 | 0.0147 | 0.0245 | – | – | – | – | – | – | – | – | – | – | 0.641 | 0.55 | 0.774 | 0.104 | 0.164 |
| NCI-H322M | 1.3 | 1.29 | 1.2 | 0.608 | 0.333 | 0.503 | 0.436 | 0.462 | 0.447 | 0.395 | 0.486 | 0.509 | 0.496 | 0.44 | 0.534 | 0.921 | 0.835 | 1.04 | 0.668 | 0.339 |
| NCI-H650 | – | – | – | – | – | 0.315 | 0.274 | 0.294 | 0.187 | 0.138 | 0.738 | 0.778 | 0.713 | 0.661 | 0.796 | 0.964 | 0.881 | 0.534 | 0.165 | 0.17 |
| NCI-H1792 | 0.624 | 0.589 | 0.559 | 0.171 | 0.0662 | 0.72 | 0.706 | 0.76 | 0.349 | 0.215 | – | – | – | – | – | 0.585 | 0.634 | 0.495 | 0.444 | 0.131 |
| ChaGo-K-1 | 0.939 | 0.691 | 0.461 | 0.311 | 0.346 | 0.908 | 0.845 | 0.785 | 0.187 | 0.188 | 0.239 | 0.256 | 0.238 | 0.225 | 0.231 | – | – | – | – | – |
| NCI-H522 | – | – | – | – | – | 1 | 0.922 | 1.13 | 0.4 | 0.303 | 0.617 | 0.443 | 0.562 | 0.55 | 0.54 | – | – | – | – | – |
| NCI-H1299 | 1.08 | 1.1 | 1.05 | 0.315 | 0.254 | – | – | – | – | – | – | – | – | – | – | 1 | 0.971 | 0.974 | 0.245 | 0.363 |
| NCI-H1650 | 1.12 | 1.1 | 0.62 | 0.145 | 0.149 | 0.382 | 0.282 | 0.188 | 0.129 | 0.145 | 0.397 | 0.444 | 0.429 | 0.501 | 0.386 | – | – | – | – | – |
| NCI-H1648 | – | – | – | – | – | 0.288 | 0.131 | 0.251 | 0.229 | 0.29 | 0.523 | 0.431 | – | – | 0.474 | – | – | – | – | – |
| NCI-H596 | 0.997 | 1.21 | 0.978 | 0.19 | 0.184 | – | – | – | – | – | 0.868 | 1.07 | 0.832 | 0.921 | 1.04 | 1.09 | 1.1 | 1.11 | 0.363 | 0.39 |
| NCI-H2342 | – | – | – | – | – | – | 0.553 | 0.542 | 0.394 | 0.397 | 0.621 | 0.467 | 0.498 | 0.437 | 0.537 | – | – | – | – | – |
| SW 900 | – | – | – | – | – | 0.549 | 0.487 | 0.471 | 0.313 | 0.219 | 0.675 | 0.524 | 0.482 | 0.536 | 0.644 | – | – | – | – | – |
| A549 | 1.38 | 1.07 | 0.0366 | 0.0423 | 0.0248 | – | – | – | – | – | – | – | – | – | – | 0.582 | 0.536 | 0.63 | 0.294 | 0.0483 |
| NCI-H2170 | 0.614 | 0.561 | 0.367 | 0.167 | 0.187 | 0.379 | 0.437 | 0.363 | 0.155 | 0.16 | 0.688 | 0.708 | 0.69 | 0.527 | 0.812 | – | – | – | – | – |
| NCI-H661 | – | – | – | – | – | 0.403 | 0.372 | 0.331 | 0.209 | 0.225 | 0.351 | 0.351 | 0.35 | 0.386 | 0.36 | 0.458 | 0.567 | 0.709 | 0.232 | 0.2 |
| NCI-H1563 | – | – | – | – | – | – | – | – | – | – | – | – | – | – | – | 1.17 | 1.19 | 1.22 | 0.73 | 0.766 |
| ABC-1 | – | – | – | – | – | 0.561 | 0.629 | 0.374 | 0.358 | 0.423 | 0.185 | 0.179 | 0.172 | 0.21 | 0.155 | 0.816 | 0.838 | 0.895 | 0.292 | 0.253 |
| LCLC-103H | – | – | – | – | – | 0.473 | 0.508 | 0.421 | 0.371 | 0.294 | 0.46 | 0.508 | 0.437 | 0.466 | 0.488 | 1.16 | 1.04 | 1.05 | 0.942 | 0.143 |
